Test results from PMC12073402, “A Selective MAP3K1 Inhibitor Facilitates Discovery of NPM1 as a Member of the Network” (Molecules, 2025).
Read-outs that look alike come from different tables or passages of the source.

What was measured:
[1] = system: NPM1 T199 phosphorylation; assay: Western blot of NPM1 T199 phosphorylation in PANC-1 cells; format: cell-based; details: 2 h
Excerpt: We further investigated changes in NPM1 phosphorylation in our dataset. Of the NPM1 phosphorylation sites quantified, four sites had significant dose-dependent decreases upon 51-106 treatment: S137, T199, S222, and S227. Only one of these phosphorylation sites, T199, has a commercially available antibody. Importantly, T199 phosphorylation plays an essential role in NPM1 function, as it is required for localization of NPM1 to sites of DNA double-stranded breaks, where it colocalizes with other DNA repair proteins such as γH2AX and RAD51 [38].
Cells were washed with cold 1× PBS and lysed in Radioimmunoprecipitation assay (RIPA) buffer (Cat# 89901; Thermo Fisher Scientific), sodium orthovanadate (Na3VO4) (Cat# 567540-5GM; Sigma-Aldrich; St. Louis, MO, USA), sodium fluoride (NaF) (Cat# 201154-5G, >99% purity; Sigma-Aldrich), β-glycerophosphate (Cat# G9422-10G; Sigma-Aldrich), and 1 mM phenylmethylsulfonyl fluoride (Cat# 10837091001; Sigma Aldrich). The samples were incubated on ice for 30 min, vortexed at 10 min intervals, and centrifuged at 14,000× g for 10 min at 4 °C. The supernatant was collected, and protein was quantified using the BCA Protein Assay kit (Cat# 23225; Thermo Fisher Scientific). […]

[2] = system: TNFα-induced IKKβ-mediated NFκB activation; parameters: method as in PMID 34098465; details: analog 84 over the earlier IKKβ inhibitor; cited from earlier work
[3] = Metabolic stability in human liver microsomes (LC-MS/MS); format: in vitro ADME; details: Species Human
Excerpt: An approach to address this issue of bioavailability is to improve metabolic stability. The para-position of the phenyl ring in acetanilide moieties is susceptible to oxidation. […] To test this, we altered the substitution pattern on the phenyl ring by moving the F atom from the ortho in 84 to the para position (Figure 1A). The regioisomer 51-106, resulting from the above change, was synthesized by coupling 3-(1-methyl-1H-pyrazol-4-yl)quinoxalin-6-amine (1) with freshly prepared 1-fluoro-4-isocyanato-2-(trifluoromethyl)benzene in dichloromethane (Scheme 1). To determine the metabolic stability of 51-106, we incubated 51-106 and analog 84 with human (pooled male and female) liver microsomes and monitored their stability using liquid chromatography–tandem mass spectrometry.
The in vitro metabolic stability of 51-106 was determined using human liver […] (XenoTech, LLC; Kansas City, KS, USA), following previously reported methods. […] Sample analysis was performed by liquid chromatography–tandem mass spectrometry (SCIEX QTRAP 4000 LC-MS/MS System, SCIEX, Framingham, MA, USA).

[4] = system: pancreatic cancer mouse model; parameters: method as in PMID 34098465; details: by itself and in combination with gemcitabine; cited from earlier work
[5] = parameters: method as in PMID 34098465; details: cited from earlier work

| Compound | NPM1 T199 phosphorylation (Western blot) [1] | improved potency [2] | T1/2 (half-life) in human liver microsomes [3] | Hepatic Extraction Ratio (E) ([3]; human liver microsomes) | half-life ([3]; both sexes, human, liver microsomes, read-out: T1/2 (half-life) in human liver microsomes (converted)) [h] | tumor growth [4] | AUC0-∞ ([5]; 20 mg/kg, Oral) [ng·h/mL] | AUClast ([5]; 20 mg/kg, Oral) [ng·h/mL] | Cmax ([5]; 20 mg/kg, Oral) [ng/mL] | MRT 0-∞ ([5]; 20 mg/kg, Oral) [h] | T1/2 ([5]; 20 mg/kg, Oral) [h] | Tmax ([5]; 20 mg/kg, Oral) [h] | Bioavailability (%F) ([5]; 20 mg/kg, Oral, listed as 84) [%] | Bioavailability (%F) ([5]; 20 mg/kg, Oral, listed as analog 84) [%] | improved bioavailability ([5]; analog 84 over the earlier IKKβ inhibitor) |
| --- | --- | --- | --- | --- | --- | --- | --- | --- | --- | --- | --- | --- | --- | --- | --- |
| CN[C@@H]1C[C@H]2O[C@@](C)([C@@H]1OC)n1c3ccccc3c3c4c(c5c6ccccc6n2c5c31)C(=O)NC4 [Staurosporine, reference compound] | Decreased phosphorylation in NPM1 T199 |  |  |  |  |  |  |  |  |  |  |  |  |  |  |
| Cn1cc(-c2cnc3ccc(NC(=O)Nc4cccc(C(F)(F)F)c4F)cc3n2)cn1 [Analog 84] |  | ~ 4 fold | ~ 13 h | 0.09 | 13.6 | inhibited tumor growth | 8008 ± 3696 | 7986 ± 3675 | 700 ± 320 | 6.3 ± 0.5 | 2.5 ± 0.3 | 6.0 | 17.6 | ~17 | ~ 5.7 fold |
